Measurements reported in patent publication US10961238B2, “Modulators of hedgehog (Hh) signaling pathway” (E-THERAPEUTICS PLC, priority 2016, dated 2021).
Where two headings read alike, the source gives them in different places.

Assays:
[1] = test system: SMO L416F mutant cell line; experiment: C3H10T1/2 cell differentiation assay in SMO L416F mutant cell line versus wild type; assay type: cell-based, mouse; conditions: SMO L416F mutant cell line compared to the wild type, C3H10T1/2 cell differentiation assay
Excerpt: FIG. 1 is a graph of the percent inhibition of C3H10T1/2 cell differentiation of vismodegib compared to compound of the invention (compound number 174), in wild type versus SMO L416F mutant cell line.
Loss of Potency in C3H10T1/2 Cell Differentiation Assay Associated with Presence of SMO L416F Mutation.
Table 3 below details the number of fold reduction in potency of a range of compounds of the invention when applied to the SMO L416F mutant cell line compared to the wild type. SMO mutation has been described in the literature (Pricl, Sabrina, et al.) as a key mutation causative of vismodegib resistance in the clinic by interfering with drug binding.

C3H10T1/2 cells = experiment: C3H assay: differentiation of C3H10T1/2 cells by mSHH, measurement of alkaline phosphatase; assay type: cell-based, mouse; conditions: Mus musculus, C3H 10T1/2
SMO = target: T1, SMO (Homo sapiens, UniProt Q99835); experiment: Smoothened (SMO) binding fluorescence polarisation assay (BODIPY-cyclopamine competition); conditions: SMO binding FP assay versus C3H10T1/2 cellular assay
T1 construct: expressed in transfected cells; host or cells: HEK293
T1 sequence (Q99835 28-787): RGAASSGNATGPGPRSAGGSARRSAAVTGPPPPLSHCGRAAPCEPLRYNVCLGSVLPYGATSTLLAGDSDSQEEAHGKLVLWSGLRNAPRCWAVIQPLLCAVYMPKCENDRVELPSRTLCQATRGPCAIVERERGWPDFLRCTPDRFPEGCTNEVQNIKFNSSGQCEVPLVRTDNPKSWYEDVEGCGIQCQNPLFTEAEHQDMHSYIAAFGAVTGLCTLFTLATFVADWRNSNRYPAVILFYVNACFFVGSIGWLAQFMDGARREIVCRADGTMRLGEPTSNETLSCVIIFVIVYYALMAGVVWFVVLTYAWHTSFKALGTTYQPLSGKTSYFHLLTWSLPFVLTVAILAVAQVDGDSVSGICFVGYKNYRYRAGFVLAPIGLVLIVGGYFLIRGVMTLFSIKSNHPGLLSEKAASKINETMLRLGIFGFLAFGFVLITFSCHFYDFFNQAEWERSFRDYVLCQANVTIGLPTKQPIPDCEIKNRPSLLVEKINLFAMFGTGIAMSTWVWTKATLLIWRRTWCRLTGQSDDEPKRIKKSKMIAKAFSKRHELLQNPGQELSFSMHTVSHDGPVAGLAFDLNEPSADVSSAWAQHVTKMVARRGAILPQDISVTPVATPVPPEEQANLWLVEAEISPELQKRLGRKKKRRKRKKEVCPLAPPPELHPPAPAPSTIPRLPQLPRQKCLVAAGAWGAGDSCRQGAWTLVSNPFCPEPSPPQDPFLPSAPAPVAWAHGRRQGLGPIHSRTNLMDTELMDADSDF
Procedure, shortened: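 Competition fluorescence polarisation with 3 nM BODIPY-cyclopamine on membranes from SMO-overexpressing HEK293 cells, 25 mM HEPES pH7.4 buffer, 0.3% DMSO. Seven-point compound dilutions; read after 24 hours at room temperature in the dark.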

[2] = C3H10T1/2 cells stimulated with mSHH for 72 hours, alkaline phosphatase activity, read-out: IC50 Ranges

IC50 (C3H10T1/2 cells; [2])	Ratio of potency in SMO binding assay to potency in C3H10T1/2 cellular assay (SMO)	IC50 (C3H10T1/2 cells; reference compounds run in the C3H assay, read-out: mean IC50)	Structure (SMILES)	Fold reduction in potency in SMO L416F mutant cell line [1]
10 to 100 nM	66		O=C(OCC1CCC1)N1CC(S(=O)(=O)N2CCC(c3cn(C(=O)OCC4CCC4)c4ncccc34)CC2)C1 [Compound 154, cyclobutylmethyl 3-[1-[1-(cyclobutylmethoxycarbonyl)azetidin-3-yl]sulfonylpiper-idin-4-yl]pyrrolo[2,3-b] pyridine-1-carboxylate]	28
	2.2	6.3 nM	CS(=O)(=O)c1ccc(C(=O)Nc2ccc(Cl)c(-c3ccccn3)c2)c(Cl)c1 [Vismodegib, reference compound]	202

Further lines, the compound ahead of its results:

Structure (SMILES)	IC50 (C3H10T1/2 cells; [2])	Ratio of potency in SMO binding assay to potency in C3H10T1/2 cellular assay (SMO)	IC50 (C3H10T1/2 cells; reference compounds run in the C3H assay, read-out: mean IC50)	Fold reduction in potency in SMO L416F mutant cell line [1]
CC(C)(C)NC(=O)N1CCC(S(=O)(=O)N2CCC(c3c[nH]c4ncccc34)CC2)CC1 [Compound 107, N-tert-butyl-4-[4-(1H-pyrrolo[2,3-b]pyridin-3-yl)piperidin-1-yl]sulfonylpiper-idine-1-carboxamide]	10 to 100 nM	20		56
CC(C)(C)CN1CC(S(=O)(=O)N2CCC(c3c[nH]c4ncccc34)CC2)C1 [Compound 143, 3-[1-[1-(2,2-Dimethylpropyl)azetidin-3-yl]sulfonyl-4-piperidyl]-1H-pyrrolo[2,3-b]pyridine]	100 to 1000 nM	>17		21
CC(C)(C)OC(=O)N1CC(S(=O)(=O)N2CCC(c3cnc4occc4c3)CC2)C1 [Compound 124, tert-butyl 3-(4-furo[2,3-b]pyridin-5-ylpiperidin-1-yl)sulfonylaze-tidine-1-carboxylate]	10 to 100 nM	82		64
